Reference: patent publication US20110165173A1, “THERAPEUTIC AGENT AND DETECTION REAGENT FOR ARTERIOSCLEROTIC DISEASE WHICH TARGETS FOR SALUSIN” (PROTEINEXPRESS CO., LTD., priority 2007, published 2011)

Assays:
[1] = tested on: macrophages of apoE-deficient mice; assay: Foaming (oxidized LDL-induced cholesterol ester accumulation) of macrophages collected from treated apoE-deficient mice; format: in vivo; details: 0.6 nmol/kg/h, four weeks
Experimental: 13-week-old male apoE-deficient mice (72 mice) were divided into the following 6 groups: (i) physiological salt saline (control); (ii) salusin-α (0.6 nmol/kg/h); (iii) salusin-β (0.6 nmol/kg/h); (iv) salusin-α (0.6 nmol/kg/h)+anti-salusin-α serum (1.4 μg/kg/h); (v) salusin-β (0.6 nmol/kg/h)+anti-salusin-β serum (1.4 μg/kg/h); and (vi) anti-salusin-β serum (1.4 μg/kg/h). The mice were subjected to continuous subcutaneous administration with the use of an osmotic mini-pump for 4 to 8 weeks. The osmotic mini-pump and the solution contained therein were changed every week.
On Day 4 after intraperitoneal administration of thioglycollate, transudatory macrophages were collected and cultured with an RPMI1640 solution containing 10% bovine fetal serum. Oxidized LDL (10 μg/mL) and [^3H] oleic acid (0.1 mM) were added to the culture solution. After 13 hours, the radioactivity of intracellularly accumulated cholesterol [^3H] oleic acid was assayed for evaluation of foaming of macrophages.

[2] = tested on: scavenger receptor class A (SR-A) activity; assay: Scavenger receptor class A (SR-A) activity: [125I]AcLDL association and degradation assays; format: cell-based, human; details: 0.6 nM; 5 to 10 μg/mL [125I]AcLDL, 18 hours
Description: A scavenger receptor is a lipoprotein receptor expressed on macrophages. It recognizes modified LDL such as oxidized LDL or AcLDL, leading to endocytosis. A ligand of such receptor that has been incorporated into a cell is degraded in the lysosome. Such scavenger receptor plays a very important role on formation of foam cells from macrophages. Known examples of a scavenger receptor include a scavenger receptor class A (SR-A), CD36, lectin-like oxidized LDL receptor-1 (LOX-1), and CD68 [Greaves D R et al., J Lipid Res. 2005; 46: 11-20.]. Oxidized LDL can bind to the four types of the above scavenger receptors. However, the only scavenger receptor to which AcLDL binds is SR-A. In this experiment, AcLDL, which is a representative example of modified LDL, was used as a ligand and the activity of SR-A serving an exclusive scavenger receptor capable of recognizing AcLDL was assayed (FIG. 9).
Peripheral blood human monocytes (4×10^6cells/6 cm dish) were cultured for 7 days in an RPMI-1640 medium (2 mL) containing 10% human serum so as to differentiate into macrophages. At such time, 0.6 nM salusin-α or salusin-β was added during culture to examine effects of salusin-α and salusin-β on the endocytosis activity (SR-A activity) of [^125I]AcLDL. On Day 7, the medium was changed. An adequate amount of medium was added to [^125I]AcLDL (5 to 10 μg/mL) and 0.6 nM salusin-α or salusin-β so as to result in a total amount of 2 mL. The cells were further cultured for 18 hours.
The cells were washed once with PBS containing 3% BSA and then washed twice with PBS. 0.1 N NaOH (1 mL) was added thereto and the resultant was allowed to stand at room temperature for 30 minutes. The cells were recovered into a polystyrene tube (12×75 mm, Fisher Scientific Company), further washed with 0.1 N NaOH (1 mL), and recovered again. The total amount of the cell extraction solution was assayed using a y counter. The protein concentration of a portion thereof was determined by the BCA method (Pierce). The cell association (μg/mg cell protein) of [^125I]AcLDL was calculated by dividing the radioactivity (cpm) of the cell extraction solution by the specific activity (cpm/μg) of [^125I]AcLDL and the cell protein amount (mg) per dish [Miyazaki A et al., J Biol Chem. 1994; 269: 5264-5269].
[^125I]AcLDL incorporated by macrophages via scavenger receptors are degraded in the lysosome. […]
A portion (750 μL) was collected from each culture supernatant into a polystyrene tube (12×75 mm, Fisher Scientific Company). […] In addition, the peptide from [^125I]AcLDL that had been processed by cells was exclusively detected in the trichloroacetic acid soluble fraction. […]

| Substance | foaming of macrophages due to oxidized LDL (intracellular cholesterol ester accumulation), fraction of control ([1]; P<0.05) | [125I]AcLDL association assay vs control cells [2] | [125I]AcLDL degradation assay vs control cells [2] | foaming of macrophages due to oxidized LDL relative to control ([1]; P<0.01) |
| --- | --- | --- | --- | --- |
| salusin-α: peptide (SEQ ID NO: 1) comprising 28 amino acid residues, generated by processing from preprosalusin (SGALPPAPAAPRPALRAQRAGPAGPGAK; listed as Homo sapiens) | approximately ¼ | no significant changes | no significant changes |  |
| salusin-β: peptide (SEQ ID NO: 3) comprising 20 amino acid residues, generated by processing from preprosalusin (AIFIFIRWLLKLGHHGRAPP; listed as Homo sapiens) [reference compound] |  | no significant changes | no significant changes | approximately 2 times |
